Each structure is given as a SMILES string.

The test system of one experiment is blackgrass (Alopecurus myosuroides). Nature of the experiment: Test B pre-/postemergence plant response. The conditions noted are these: 31 g ai/ha, postemergence; scale 0 to 100, 0 is no effect, 100 is complete control. The experiment is classed as in vivo. In a few lines:
(§1)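 Compound in solvent + surfactant applied pre-em (loam/sand) or post-em (plants 2–18 cm, peat medium); greenhouse hold 13–15 days; visual 0–100 control score.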
With `O=C1CCCC(OC(=O)C2CC2)=C1C(=O)c1cnc(-c2ccccc2)n(-c2ccccc2)c1=O` [Compound 88], the “Plant response rating, Blackgrass” value is recorded as 0.

The experiment is the same for the next values; noted with them: 62 g ai/ha, postemergence; 0 is no effect, 100 is complete control; 13 to 15 days.
`O=C1CCCC(OC(=O)C2CC2)=C1C(=O)c1cnc(-c2ccccc2)n(-c2ccccc2)c1=O` [Compound 88]: the “Blackgrass plant response rating (0 to 100 scale)” value was 5.

The same experiment, now with this note: Postemergence, 125 g ai/ha; visual rating after 13 to 15 days, scale 0 (no effect) to 100 (complete control).
`O=C1CCCC(OC(=O)C2CC2)=C1C(=O)c1cnc(-c2ccccc2)n(-c2ccccc2)c1=O` [Compound 88]: the “Plant response rating, Blackgrass” value is 5.

Staying with this experiment, now noted: Postemergence, 250 g ai/ha; scale 0 to 100 (0 no effect, 100 complete control).
Take `O=C1CCCC(OC(=O)C2CC2)=C1C(=O)c1cnc(-c2ccccc2)n(-c2ccccc2)c1=O` [Compound 88]: the “Plant response rating, Blackgrass” value came out at 10.

Another experiment relates to corn (Zea mays). Nature of the experiment: Test B pre-/postemergence plant response. It is filed as in vivo. Particulars: 31 g ai/ha, postemergence; scale 0 to 100, 0 is no effect, 100 is complete control. The essentials:
as §1
Regarding `O=C1CCCC(OC(=O)C2CC2)=C1C(=O)c1cnc(-c2ccccc2)n(-c2ccccc2)c1=O` [Compound 88], the “Plant response rating, Corn” value amounted to 15.

The same experiment, now with this note: 62 g ai/ha, postemergence; 0 is no effect, 100 is complete control; 13 to 15 days.
On to `O=C1CCCC(OC(=O)C2CC2)=C1C(=O)c1cnc(-c2ccccc2)n(-c2ccccc2)c1=O` [Compound 88], for which the “Corn plant response rating (0 to 100 scale)” value stood at 65.

Still in this experiment, the particulars now being: Postemergence, 125 g ai/ha; visual rating after 13 to 15 days, scale 0 (no effect) to 100 (complete control).
In the case of `O=C1CCCC(OC(=O)C2CC2)=C1C(=O)c1cnc(-c2ccccc2)n(-c2ccccc2)c1=O` [Compound 88], the “Plant response rating, Corn” value is 65.

Still in this experiment, the particulars now being: Postemergence, 250 g ai/ha; scale 0 to 100 (0 no effect, 100 complete control).
As to `O=C1CCCC(OC(=O)C2CC2)=C1C(=O)c1cnc(-c2ccccc2)n(-c2ccccc2)c1=O` [Compound 88], the “Plant response rating, Corn” value amounted to 80.

A further experiment relates to large crabgrass (Digitaria sanguinalis). Nature of the experiment: Test B pre-/postemergence plant response. The conditions noted are these: 31 g ai/ha, postemergence; scale 0 to 100, 0 is no effect, 100 is complete control. It is filed as in vivo. In a few lines:
as §1
On to `O=C1CCCC(OC(=O)C2CC2)=C1C(=O)c1cnc(-c2ccccc2)n(-c2ccccc2)c1=O` [Compound 88], for which the “Plant response rating, Crabgrass, Large” value was determined as 95.

The same experiment, now with this note: 62 g ai/ha, postemergence; 0 is no effect, 100 is complete control; 13 to 15 days.
For `O=C1CCCC(OC(=O)C2CC2)=C1C(=O)c1cnc(-c2ccccc2)n(-c2ccccc2)c1=O` [Compound 88], the “Crabgrass, Large plant response rating (0 to 100 scale)” value is recorded as 98.

The experiment is the same for the next values; noted with them: Postemergence, 125 g ai/ha; visual rating after 13 to 15 days, scale 0 (no effect) to 100 (complete control).
Turning to `O=C1CCCC(OC(=O)C2CC2)=C1C(=O)c1cnc(-c2ccccc2)n(-c2ccccc2)c1=O` [Compound 88], the “Plant response rating, Crabgrass, Large” value is on record as 98.

Staying with this experiment, now noted: Postemergence, 250 g ai/ha; scale 0 to 100 (0 no effect, 100 complete control).
For `O=C1CCCC(OC(=O)C2CC2)=C1C(=O)c1cnc(-c2ccccc2)n(-c2ccccc2)c1=O` [Compound 88], the “Plant response rating, Crabgrass, Large” value is 98.

The test system of the next experiment is Surinam grass (Brachiaria decumbens). Nature of the experiment: Test B pre-/postemergence plant response. The experiment is classed as in vivo. The conditions noted are these: 31 g ai/ha, postemergence; scale 0 to 100, 0 is no effect, 100 is complete control. The essentials:
as §1
On to `O=C1CCCC(OC(=O)C2CC2)=C1C(=O)c1cnc(-c2ccccc2)n(-c2ccccc2)c1=O` [Compound 88], for which the “Plant response rating, Surinam Grass” value amounted to 95.

The experiment is the same for the next values; noted with them: 62 g ai/ha, postemergence; 0 is no effect, 100 is complete control; 13 to 15 days.
Regarding `O=C1CCCC(OC(=O)C2CC2)=C1C(=O)c1cnc(-c2ccccc2)n(-c2ccccc2)c1=O` [Compound 88], the “Surinam Grass plant response rating (0 to 100 scale)” value is given as 95.

The experiment is the same for the next values; noted with them: Postemergence, 250 g ai/ha; scale 0 to 100 (0 no effect, 100 complete control).
Take `O=C1CCCC(OC(=O)C2CC2)=C1C(=O)c1cnc(-c2ccccc2)n(-c2ccccc2)c1=O` [Compound 88]: the “Plant response rating, Surinam Grass” value was determined as 98.

Another experiment relates to downy bromegrass (Bromus tectorum). Nature of the experiment: Test B pre-/postemergence plant response. It is filed as in vivo. The conditions noted are these: 31 g ai/ha, postemergence; scale 0 to 100, 0 is no effect, 100 is complete control. The essentials:
as §1
With `O=C1CCCC(OC(=O)C2CC2)=C1C(=O)c1cnc(-c2ccccc2)n(-c2ccccc2)c1=O` [Compound 88], the “Plant response rating, Bromegrass, Downy” value is 40.

The experiment is the same for the next values; noted with them: 62 g ai/ha, postemergence; 0 is no effect, 100 is complete control; 13 to 15 days.
Turning to `O=C1CCCC(OC(=O)C2CC2)=C1C(=O)c1cnc(-c2ccccc2)n(-c2ccccc2)c1=O` [Compound 88], the “Bromegrass, Downy plant response rating (0 to 100 scale)” value is given as 45.

The same experiment, now with this note: Postemergence, 125 g ai/ha; visual rating after 13 to 15 days, scale 0 (no effect) to 100 (complete control).
For the compound `O=C1CCCC(OC(=O)C2CC2)=C1C(=O)c1cnc(-c2ccccc2)n(-c2ccccc2)c1=O` [Compound 88], the “Plant response rating, Bromegrass, Downy” value is given as 45.

The same experiment, now with this note: Postemergence, 250 g ai/ha; scale 0 to 100 (0 no effect, 100 complete control).
Consider `O=C1CCCC(OC(=O)C2CC2)=C1C(=O)c1cnc(-c2ccccc2)n(-c2ccccc2)c1=O` [Compound 88], for which the “Plant response rating, Bromegrass, Downy” value amounted to 60.

The next experiment has as its system yellow nutsedge (Cyperus esculentus). Put plainly: Test B pre-/postemergence plant response. It is filed as in vivo. Particulars: 31 g ai/ha, postemergence; scale 0 to 100, 0 is no effect, 100 is complete control. The essentials:
as §1
On to `O=C1CCCC(OC(=O)C2CC2)=C1C(=O)c1cnc(-c2ccccc2)n(-c2ccccc2)c1=O` [Compound 88], for which the “Plant response rating, Nutsedge, Yellow” value came to 25.

The experiment is the same for the next values; noted with them: 62 g ai/ha, postemergence; 0 is no effect, 100 is complete control; 13 to 15 days.
On to `O=C1CCCC(OC(=O)C2CC2)=C1C(=O)c1cnc(-c2ccccc2)n(-c2ccccc2)c1=O` [Compound 88], for which the “Nutsedge, Yellow plant response rating (0 to 100 scale)” value stood at 65.

The experiment is the same for the next values; noted with them: Postemergence, 250 g ai/ha; scale 0 to 100 (0 no effect, 100 complete control).
`O=C1CCCC(OC(=O)C2CC2)=C1C(=O)c1cnc(-c2ccccc2)n(-c2ccccc2)c1=O` [Compound 88]: the “Plant response rating, Nutsedge, Yellow” value is reported as 75.

The values are drawn from US8952024B2, “Herbicidal pyrimidone derivatives” (E I du Pont de Nemours and Company, priority 2009, dated 2015).
